Literature values, collected in patent US11980685B1, “Liquid pharmaceutical formulations of tafamidis” (TaP Pharmaceuticals, AG, priority 2022, dated 2024).
≈ marks a conversion by molar mass, not a printed value. Where two headings read alike, the source gives them in different places.

Key:
[1] = 20 mg in 3.0 mL, equilibrated 1 h, UHPLC

Compound	Solubility (pH 2.6, 0.02M Acetate-phosphate buffer) [µg/mL]	Solubility (pH 5.3, 0.02M Acetate-phosphate buffer) [µg/mL]	Solubility (pH 6.3, 0.02M Acetate-phosphate buffer) [µg/mL]	Solubility (pH 7.0, 0.02M Acetate-phosphate buffer) [µg/mL]	Solubility (pH 7.6, 0.02M Acetate-phosphate buffer as printed) [µg/mL]	Solubility (pH 7.8, 0.02M Acetate-phosphate buffer) [µg/mL]	Solubility (pH 8.0, 0.02M Acetate-phosphate buffer) [µg/mL]	Solubility classification per the BCS criteria (statement of the NDA 212161 applicant on Table F)	Concentration of tafamidis in saturated solution (solubility) ([1]; FaSSIF) [µg/mL]	Concentration of tafamidis in saturated solution (solubility) ([1]; FeSSIF) [µg/mL]	Concentration of tafamidis in saturated solution (solubility) ([1]; SGF) [µg/mL]
O=C(O)c1ccc2nc(-c3cc(Cl)cc(Cl)c3)oc2c1 [Tafamidis, 2-(3,5-dichlorophenyl)-1,3-benzoxazole-6-carboxylic acid]	<2	<2	2 (≈ 6.49 µM)	15.8 (≈ 51.3 µM)	17.5 (≈ 56.8 µM)	72.8 (≈ 236 µM)	140 (≈ 454 µM)	poorly soluble drug substance	–	–	–
O=C(O)c1ccc2nc(-c3cc(Cl)cc(Cl)c3)oc2c1 [′441 patent's tafamidis crystal form 1]	–	–	–	–	–	–	–	–	9.0	0.6	1.5
